For 31 molecules, IC50 results are on record in patent publication US10072003B2, “Tetrahydronaphthyridine derivatives as mGluR2-negative allosteric modulators, compositions, and their use” (Merck Sharp & Dohme Corp., priority 2014, dated 2018).

pIC50: −log10 of the molar value.

A word on the pIC50: it is −log10 of the IC50, conventionally taken in molar units.

recombinant human mGluR2, sequence (Q14416 19-872): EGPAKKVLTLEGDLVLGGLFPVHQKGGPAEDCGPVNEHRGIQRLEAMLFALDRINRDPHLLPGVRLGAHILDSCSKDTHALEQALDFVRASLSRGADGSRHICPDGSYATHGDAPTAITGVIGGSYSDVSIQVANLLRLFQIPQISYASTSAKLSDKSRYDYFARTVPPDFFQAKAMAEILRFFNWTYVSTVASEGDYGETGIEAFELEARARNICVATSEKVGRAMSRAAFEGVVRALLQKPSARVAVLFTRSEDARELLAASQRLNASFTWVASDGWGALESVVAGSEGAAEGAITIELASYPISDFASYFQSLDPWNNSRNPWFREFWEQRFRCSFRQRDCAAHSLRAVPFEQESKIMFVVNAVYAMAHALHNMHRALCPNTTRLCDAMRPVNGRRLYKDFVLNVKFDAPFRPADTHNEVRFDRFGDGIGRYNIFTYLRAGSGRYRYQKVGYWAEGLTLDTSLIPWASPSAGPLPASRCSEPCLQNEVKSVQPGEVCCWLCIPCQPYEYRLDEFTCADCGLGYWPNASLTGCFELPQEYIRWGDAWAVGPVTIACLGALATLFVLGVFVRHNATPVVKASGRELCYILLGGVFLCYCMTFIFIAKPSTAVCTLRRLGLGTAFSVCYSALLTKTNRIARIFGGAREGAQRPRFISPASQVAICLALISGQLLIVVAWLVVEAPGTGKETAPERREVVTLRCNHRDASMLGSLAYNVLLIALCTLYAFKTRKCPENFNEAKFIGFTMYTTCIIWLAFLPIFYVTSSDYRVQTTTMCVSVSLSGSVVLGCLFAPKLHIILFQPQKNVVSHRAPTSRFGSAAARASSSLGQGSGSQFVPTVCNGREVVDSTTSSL

The test has as its target recombinant human mGluR2 (Homo sapiens (Human), UniProt Q14416). In words: FLIPR Ca2+ mobilization antagonist assay in CHO dhfr- cells expressing human mGluR2 and Gα16. It is filed as cell-based. The note with it: antagonist response after addition of 2,500 nM glutamate, Fluo-4 AM, FLIPR384. Here is the method: Antagonist constants are determined as follows. The compounds of the invention were tested in a fluorescence laser imaging plate reader based assay. This assay is a common functional assay to monitor Ca2+ mobilization in whole cells expressing recombinant receptor coupled with a promiscuous G-protein. CHO dhfr-cells stably expressing recombinant human mGluR2 and Gα16 loaded with Fluo-4 AM (Invitrogen, Carlsbad Calif.) were treated with various concentrations of antagonists of compounds and the Ca2+ response was monitored on a FLIPR384 (Molecular Devices, Sunnydale Calif.) for agonist activity. Then 2,500 nM glutamate was added and the antagonist response was monitored. The maximum calcium response at each concentration of compound for agonist or antagonist were plotted as dose responses and the curves were fitted with a four parameter logistic equation giving IC50 and Hill coefficient using the iterative non linear curve fitting software ADA (Merck & Co). Data in the following table represent activities in the antagonist assay.
A general note: Calcium assays in cells follow changes in intracellular calcium, usually with a dye or a luminescent sensor.
Regarding `CC(c1cnnn1C)N1CCc2c(-c3ccc(F)cc3F)cc(C(N)=O)nc2C1` (single isomer, unassigned) [Example 7-2, (R) or (S)-4-(2,4-difluorophenyl)-7-[(1R)-1-(1-methyl-1H-1,2,3-triazol-5-yl)ethyl]-5,6,7,8-tetrahydro-1,7-naphthyridine-2-carboxamide], the pIC50 was 7.34.

In the case of `CC(c1ccnc(C(F)(F)F)c1)N1CCc2c(-c3cnn(C(F)F)c3)cc(C(N)=O)nc2C1` (single isomer, unassigned) [Example 7-3A, (S) or (R)-4-[1-(difluoromethyl)-1H-pyrazol-4-yl]-7-{(1R)-1-[2-(trifluoromethyl)pyridin-4-yl]ethyl}-5,6,7,8-tetrahydro-1,7-naphthyridine-2-carboxamide], the pIC50 was 7.53.

On to `CC(c1ccnc(C(F)(F)F)c1)N1CCc2c(-c3cnn(C(F)F)c3)cc(C(N)=O)nc2C1` (single isomer, unassigned) [Example 7-3B, (R) or (S)-4-[1-(difluoromethyl)-1H-pyrazol-4-yl]-7-{(1S)-1-[2-(trifluoromethyl)pyridin-4-yl]ethyl}-5,6,7,8-tetrahydro-1,7-naphthyridine-2-carboxamide], for which the negative-log IC50 (pIC50) was 7.67.

Turning to `CC(c1ccnn1C)N1CCc2c(-c3ccc(F)cc3F)cc(C(N)=O)nc2C1` (single isomer, unassigned) [Example 7-4, (S) or (R)-4-(2,4-difluorophenyl)-7-[(1S)-1-(1-methyl-1H-pyrazol-5-yl)ethyl]-5,6,7,8-tetrahydro-1,7-naphthyridine-2-carboxamide], the pIC50 was 7.70.

As to `NC(=O)c1cc(-c2ccc(F)cc2F)c2c(n1)CN(CC(O)c1ccccc1)CC2` (single isomer, unassigned) [Example 8-3A, (S) or (R)-4-(2,4-difluorophenyl)-7-[(2S or 2R)-2-hydroxy-2-phenylethyl]-5,6,7,8-tetrahydro-1,7-naphthyridine-2-carboxamide], the pIC50 is 7.73.

For the molecule `NC(=O)c1cc(-c2ccc(F)cc2F)c2c(n1)CN(CC(O)c1ccccc1)CC2` (single isomer, unassigned) [Example 8-3B, (R) or (S)-4-(2,4-difluorophenyl)-7-[(2R or 2S)-2-hydroxy-2-phenylethyl]-5,6,7,8-tetrahydro-1,7-naphthyridine-2-carboxamide], the pIC50 is 7.90.

Turning to `CC1(C)CC(F)(CN2CCc3c(-c4ccc(F)cc4F)cc(C(N)=O)nc3C2)CO1` (single isomer, unassigned) [Example 14-1A], the pIC50 was 7.76.

`CC1(C)CC(F)(CN2CCc3c(-c4ccc(F)cc4F)cc(C(N)=O)nc3C2)CO1` (single isomer, unassigned) [Example 14-1B]: the negative logarithm of the IC50 (pIC50) is 7.75.

For the molecule `CC1(C)CC(O)(CN2CCc3c(-c4ccc(F)cc4F)cc(C(N)=O)nc3C2)CCO1` (single isomer, unassigned) [Example 14-2A], the negative-log IC50 (pIC50) was 7.50.

As for `CC1(C)CC(O)(CN2CCc3c(-c4ccc(F)cc4F)cc(C(N)=O)nc3C2)CCO1` (single isomer, unassigned) [Example 14-2B], the pIC50 was 7.57.

As for `CC1(C)CC(O)(CN2CCc3c(-c4ccc(F)cc4F)cc(C(N)=O)nc3C2(C)C)CO1` (single isomer, unassigned) [Example 15-1A], the pIC50 is 7.60.

Regarding `CC1(C)CC(O)(CN2CCc3c(-c4ccc(F)cc4F)cc(C(N)=O)nc3C2(C)C)CO1` (single isomer, unassigned) [Example 15-1B], the negative logarithm of the IC50 (pIC50) was 7.63.

For the molecule `NC(=O)c1cc(-c2ccc(F)cc2)c2c(n1)CN(C[C@H]1CCN[C@@H](C(F)(F)F)C1)CC2` [Example 1-1A, 4-(4-fluorophenyl)-7-(((2R,4S)-2-(trifluoromethyl)piperidin-4-yl)methyl)-5,6,7,8-tetrahydro-1,7-naphthyridine-2-carboxamide], the pIC50 was 7.01.

Turning to `NC(=O)c1cc(-c2ccc(F)cc2)c2c(n1)CN(C[C@@H]1CCN[C@H](C(F)(F)F)C1)CC2` [Example 1-1B, 4-(4-fluorophenyl)-7-(((2S,4R)-2-(trifluoromethyl)piperidin-4-yl)methyl)-5,6,7,8-tetrahydro-1,7-naphthyridine-2-carboxamide], the negative logarithm of the IC50 (pIC50) was 7.01.

For `NC(=O)c1cc(-c2ccc(F)cc2)c2c(n1)CN(C[C@@H]1CCO[C@H](C3CC3)C1)CC2` [Example 1-2A, 7-(((2S,4R)-2-cyclopropyltetrahydro-2H-pyran-4-yl)methyl)-4-(4-fluorophenyl)-5,6,7,8-tetrahydro-1,7-naphthyridine-2-carboxamide], the negative-log IC50 (pIC50) was 6.89.

`NC(=O)c1cc(-c2ccc(F)cc2)c2c(n1)CN(C[C@H]1CCO[C@@H](C3CC3)C1)CC2` [Example 1-2B, 7-(((2R,4S)-2-cyclopropyltetrahydro-2H-pyran-4-yl)methyl)-4-(4-fluorophenyl)-5,6,7,8-tetrahydro-1,7-naphthyridine-2-carboxamide]: the pIC50 was 6.89.

Turning to `CC(C)(C)[C@@H]1C[C@H](CN2CCc3c(-c4ccc(F)cc4)cc(C(N)=O)nc3C2)CCO1` [Example 1-3A, 7-(((2S,4R)-2-(tert-butyl)tetrahydro-2H-pyran-4-yl)methyl)-4-(4-fluorophenyl)-5,6,7,8-tetrahydro-1,7-naphthyridine-2-carboxamide], the pIC50 is 6.88.

As to `CC(C)(C)[C@H]1C[C@@H](CN2CCc3c(-c4ccc(F)cc4)cc(C(N)=O)nc3C2)CCO1` [Example 1-3B, 7-(((2R,4S)-2-(tert-butyl)tetrahydro-2H-pyran-4-yl)methyl)-4-(4-fluorophenyl)-5,6,7,8-tetrahydro-1,7-naphthyridine-2-carboxamide], the pIC50 was 6.75.

Consider `NC(=O)c1cc(-c2ccc(F)cc2)c2c(n1)CN(CCc1cccnc1N)CC2` [Example 1-4, 7-(2-(2-aminopyridin-3-yl)ethyl)-4-(4-fluorophenyl)-5,6,7,8-tetrahydro-1,7-naphthyridine-2-carboxamide], for which the negative-log IC50 (pIC50) is 7.08.

`Cn1nccc1CN1CCc2c(-c3ccc(F)cc3F)cc(C(N)=O)nc2C1` [Example 1-6, 4-(2,4-difluorophenyl)-7-[(1-methyl-1H-pyrazol-5-yl)methyl]-5,6,7,8-tetrahydro-1,7-naphthyridine-2-carboxamide]: the negative-log IC50 (pIC50) is 7.84.

Take `Cc1cc(CN2CCc3c(-c4ccc(F)cc4F)cc(C(N)=O)nc3C2)n(C)n1` [Example 1-7, 4-(2,4-difluorophenyl)-7-[(1,3-dimethyl-1H-pyrazol-5-yl)methyl]-5,6,7,8-tetrahydro-1,7-naphthyridine-2-carboxamide]: the pIC50 was 7.86.

Regarding `Cn1nccc1CN1CCc2c(-c3ccc(Cl)cc3F)cc(C(N)=O)nc2C1` [Example 1-8, 4-(4-chloro-2-fluorophenyl)-7-[(1-methyl-1H-pyrazol-5-yl)methyl]-5,6,7,8-tetrahydro-1,7-naphthyridine-2-carboxamide], the negative-log IC50 (pIC50) was 8.06.

Turning to `CC(C)n1nccc1CN1CCc2c(-c3ccc(F)cc3F)cc(C(N)=O)nc2C1` [Example 1-9, 4-(2,4-difluorophenyl)-7-{[1-(1-methylethyl)-1H-pyrazol-5-yl]methyl}-5,6,7,8-tetrahydro-1,7-naphthyridine-2-carboxamide], the pIC50 is 8.09.

Regarding `Cc1cnn(C)c1CN1CCc2c(-c3ccc(F)cc3F)cc(C(N)=O)nc2C1` [Example 1-10, 4-(2,4-difluorophenyl)-7-[(1,4-dimethyl-1H-pyrazol-5-yl)methyl]-5,6,7,8-tetrahydro-1,7-naphthyridine-2-carboxamide], the pIC50 was 7.66.

For the molecule `Cc1ccc(-c2cc(C(N)=O)nc3c2CCN(Cc2ccnn2C(C)C)C3)c(F)c1` [Example 1-12, 4-(2-fluoro-4-methylphenyl)-7-{[1-(1-methylethyl)-1H-pyrazol-5-yl]methyl}-5,6,7,8-tetrahydro-1,7-naphthyridine-2-carboxamide], the pIC50 was 8.00.

Turning to `CC(C)(C)n1nccc1CN1CCc2c(-c3ccncc3)cc(C(N)=O)nc2C1` [Example 1-13, 7-[(1-tert-butyl-1H-pyrazol-5-yl)methyl]-4-pyridin-4-yl-5,6,7,8-tetrahydro-1,7-naphthyridine-2-carboxamide], the pIC50 is 7.08.

`Cn1cncc1CN1CCc2c(-c3ccc(Cl)cc3F)cc(C(N)=O)nc2C1` [Example 1-16, 4-(4-chloro-2-fluorophenyl)-7-[(1-methyl-1H-imidazol-5-yl)methyl]-5,6,7,8-tetrahydro-1,7-naphthyridine-2-carboxamide]: the pIC50 was 7.85.

As to `CC(C)(C)n1nncc1CN1CCc2c(-c3c(F)cc(Cl)cc3F)cc(C(N)=O)nc2C1` [Example 1-17, 7-[(1-tert-butyl-1H-1,2,3-triazol-5-yl)methyl]-4-(4-chloro-2,6-difluorophenyl)-5,6,7,8-tetrahydro-1,7-naphthyridine-2-carboxamide], the pIC50 is 8.13.

As to `NC(=O)c1cccc(CN2CCc3c(-c4ccc(F)cc4)cc(C(N)=O)nc3C2)c1` [Example 2-1, 7-(3-carbamoylbenzyl)-4-(4-fluorophenyl)-5,6,7,8-tetrahydro-1,7-naphthyridine-2-carboxamide], the negative-log IC50 (pIC50) was 7.28.

Take `NC(=O)c1cc(-c2ccc(F)cc2)c2c(n1)CN(Cc1ccccc1C(N)=O)CC2` [Example 2-2, 7-(2-carbamoylbenzyl)-4-(4-fluorophenyl)-5,6,7,8-tetrahydro-1,7-naphthyridine-2-carboxamide]: the negative logarithm of the IC50 (pIC50) is 7.55.

Take `NC(=O)c1ccc(CN2CCc3c(-c4ccc(F)cc4)cc(C(N)=O)nc3C2)cc1` [Example 2-3, 7-(4-carbamoylbenzyl)-4-(4-fluorophenyl)-5,6,7,8-tetrahydro-1,7-naphthyridine-2-carboxamide]: the pIC50 was 6.93.
